{"source": "PubChem BioAssay AID508", "target": "S-adenosylmethionine synthase isoform type-2 (Homo sapiens) (UniProt P31153)", "sequence (P31153 whole entry, looked up, canonical isoform)": "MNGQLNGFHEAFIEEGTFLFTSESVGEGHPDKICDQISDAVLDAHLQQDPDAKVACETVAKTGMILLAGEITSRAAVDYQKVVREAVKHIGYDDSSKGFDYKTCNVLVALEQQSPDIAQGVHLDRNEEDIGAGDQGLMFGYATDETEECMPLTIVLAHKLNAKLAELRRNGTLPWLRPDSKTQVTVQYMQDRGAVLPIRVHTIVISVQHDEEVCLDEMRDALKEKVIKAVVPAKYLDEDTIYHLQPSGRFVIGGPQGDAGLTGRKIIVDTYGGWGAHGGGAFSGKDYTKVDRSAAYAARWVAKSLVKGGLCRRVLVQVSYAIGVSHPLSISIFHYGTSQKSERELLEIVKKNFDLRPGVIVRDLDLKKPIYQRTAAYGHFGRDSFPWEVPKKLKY", "test": "PubChem AID 508", "settings": "recombinant MAT2A, DSF SYPRO orange Tm shift; at 10 µM; protein 2 µM; buffer 25 mM HEPES; pH 7.5; 75mM NaCl; 100uM ATPgammaS; Adenosine 5'-[gamma-thio]triphosphate tetralithium salt; hits give high values"}
{"compound": "CSCCC(N)C(=O)O", "note": "(stereo unspecified)", "values": [{"measurement": "Tm shift", "result": 2.1, "unit": "Celsius"}]}
